Assay results from ChEMBL document CHEMBL1201862, “PubChem BioAssay data set” (2004).
Calls of active or inactive are those of the source.

How the values were obtained:
[1] = P. falciparum Dd2 growth inhibitors, dose response, SYBR Green, dry powder samples, set 9 (AID 1159568); format: functional, cell-based
[2] = P. falciparum 3D7-ScDHODH growth inhibitors, dose response, SYBR Green, dry powder samples (AID 1159570); format: functional, cell-based;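 further: parasite growth measured after 72 hours of compound exposure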
[3] = P. falciparum Dd2 growth inhibitors, dose response, SYBR Green, cherry-picked samples (AID 1159567); format: functional, cell-based
[4] = P. falciparum Dd2 growth inhibitors, dose response, SYBR Green, dry powder samples (AID 1159566); format: functional, cell-based;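 further: potency for growth inhibition with lower SYBR green DNA signal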
[5] = P. falciparum ATP4 D1247Y mutant growth inhibitors, dose response, NITD609-resistant line, SYBR Green, dry powder (AID 1159571); format: functional, cell-based;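 further: parasites synchronized at ring stage by sorbitol before testing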
[6] = Late stage assay provider results from the probe development effort to identify inhibitors of the Plasmodium falciparum M18 Aspartyl Aminopeptidase (M18AAP): radiolabel-based cell-based dose response assay to identify compounds that inhibit P. falciparum growth in RBCs, Set 2..; format: functional
Protein Tat = Protein Tat (Human immunodeficiency virus type 1 group M subtype B (isolate HXB2)(HIV-1), UniProt P04608); format: functional;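 further: tat binding to TAR RNA read out by fluorescence polarization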
Protein Tat, sequence (P04608 whole entry): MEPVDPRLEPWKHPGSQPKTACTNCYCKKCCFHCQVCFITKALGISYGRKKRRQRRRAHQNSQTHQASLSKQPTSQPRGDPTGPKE

[7] = HepG2 cell cytotoxicity, dose response, cytotoxicity control, cherry-picked samples (AID 1159577); format: functional, cell-based
Bcl-2-related protein A1 = biological target: T1, Bcl-2-related protein A1 (Mus musculus, UniProt Q07440); test: Bfl-1 inhibitors, primary screen, biochemical, fluorescence polarization, FITC-Bid, mouse (AID 432)
T1 sequence (Q07440 whole entry): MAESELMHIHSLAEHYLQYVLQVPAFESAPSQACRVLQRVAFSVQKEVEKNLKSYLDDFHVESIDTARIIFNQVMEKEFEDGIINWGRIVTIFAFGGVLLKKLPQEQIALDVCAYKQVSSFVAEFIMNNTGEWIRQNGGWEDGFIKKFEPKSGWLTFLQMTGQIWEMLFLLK

[8] = biological target: T2, Dual specificity protein phosphatase 6 (Rattus norvegicus, UniProt Q64346); test: MKP-3 phosphatase inhibitors, primary screen, biochemical, rat enzyme, in vitro (AID 425)
T2 sequence (Q64346 whole entry): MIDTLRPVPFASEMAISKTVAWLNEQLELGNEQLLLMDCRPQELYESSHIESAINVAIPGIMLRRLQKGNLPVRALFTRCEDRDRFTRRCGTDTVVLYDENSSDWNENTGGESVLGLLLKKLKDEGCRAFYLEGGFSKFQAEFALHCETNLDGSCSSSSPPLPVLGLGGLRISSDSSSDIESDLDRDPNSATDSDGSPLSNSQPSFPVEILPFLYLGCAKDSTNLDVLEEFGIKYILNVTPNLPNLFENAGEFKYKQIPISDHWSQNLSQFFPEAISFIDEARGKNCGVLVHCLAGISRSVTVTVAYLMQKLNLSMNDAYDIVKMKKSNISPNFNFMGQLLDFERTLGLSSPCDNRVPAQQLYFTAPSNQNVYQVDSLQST

[9] = biological target: T3, Small ubiquitin-related modifier 1 (Homo sapiens, UniProt P63165); test: inhibitors of SUMO1 peptide binding, dose response, biochemical, fluorescence polarization, uHTS hits (AID 624382); format: functional; conditions: read-out: IC50_Mean
T3 sequence (P63165 whole entry): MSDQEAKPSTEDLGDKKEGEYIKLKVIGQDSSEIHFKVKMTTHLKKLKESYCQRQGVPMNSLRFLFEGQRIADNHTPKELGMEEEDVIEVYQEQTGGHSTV

[10] = biological target: T3, Small ubiquitin-related modifier 1; test: inhibitors of SUMO1 partner interactions, dose response, biochemical, FRET (AID 624383); format: functional; conditions: read-out: IC50_Mean
[11] = biological target: Heat shock protein HSP 90-alpha (Homo sapiens, UniProt P07900); test: Luminescence-based dose response biochemical high throughput screening assay for inhibitors of the Heat Shock Protein 90 (HSP90). [Related pubchem assays: 1831 (Summary AID.), 1846 (Confirmation screen.), 1789 (Primary screen.)]
[12] = Luminescent dose response cell-based high throughput screening assay for inhibitors of the Janus kinase 2 mutant JAK2V617F. [Related pubchem assays: 1446 (Primary screen.), 1521 (Confirmation assay.), 1486 (Counter screen.)]; format: functional

Compound: C[C@H]1CCCCO[C@H](CN(C)S(=O)(=O)c2ccc(F)cc2)[C@@H](C)CN([C@@H](C)CO)C(=O)c2cc(N(C)C)ccc2O1
- AC50 [1]: 4.91 µM (active)

Compound: O=C(c1ccccc1F)N1CC(=O)N2[C@H](C1)[C@@H](c1ccc(-c3ccc(F)cc3)cc1)[C@@H]2CO
- AC50 [2]: 1.72 µM (active)
- AC50 [3]: 1.41 µM (active)
- AC50 [4]: 0.497 µM (active)
- AC50 [5]: 1.09 µM (active)

Compound: CCOc1ccc2nccc(NCCc3ccc(OC)c(OC)c3)c2c1
- IC50 [6]: 1.4 µM (active)

Compound: COc1ccc(CCN2C(=O)CC(Nc3ccc(N4CCOCC4)cc3)C2=O)cc1OC (configuration not stated)
- IC50 (Protein Tat): 18.8 µM (inconclusive)

Compound: C[C@@H]1CN([C@@H](C)CO)S(=O)(=O)c2ccc(/C=C/c3ccccc3)cc2O[C@@H]1CN(C)C(=O)Nc1ccc(F)cc1
- AC50 [3]: 5.09 µM (active)
- AC50 [7]: 25.5 µM (active)

Compound: Oc1ccc(CCNc2ccnc3cc(Cl)ccc23)cc1O
- IC50 [6]: 0.62 µM (active)

Compound: Nc1ccc2ncccc2c1N
- IC50 (Bcl-2-related protein A1): 3.49 µM (active)
- IC50 [8]: > 10 µM (not active)
- IC50 [9]: > 66.6 µM (inactive)
- IC50 [10]: 3.21 µM (active)

Compound: COC(=O)C1CCN(C(=O)c2ccc3nc(-c4cccc(OC)c4)oc3c2)CC1
- IC50 [11]: 1.05 µM (active)

Compound: CCCn1c(CN(C)Cc2ccccc2)nc2c1c(=O)n(C)c(=O)n2C
- IC50 [12]: 4.92 µM (active)

Compound: COc1ccc(S(=O)(=O)Nc2ccc3c(c2)C(=O)N([C@H](C)CO)C[C@@H](C)[C@H](CN(C)Cc2ccc(C(F)(F)F)cc2)OCCCC[C@@H](C)O3)cc1
- AC50 [1]: 3.69 µM (active)
